≈ marks a conversion by molar mass, not a printed value.
Tests used:
WM793 cells = system: WM793 cells; parameters: method as in PMID 34577645; details: WM793, 48 h; cited from earlier work
HT29 = assay: MTT viability assay, HT29 colon cancer cells; assay type: cell-based, human; details: for Cell viability: HT29, 24 h; for IC50: Homo sapiens, HT-29
Source text: (§1) Cell lines of different origins were used in the study and grouped as follows: prostate panel (human prostate carcinomas: DU145, derived from metastatic site: brain; grade IV PC3, derived from metastatic site: bone; LNCaP, derived from the metastatic site: lymph node; prostate epithelial, PNT2), colon panel (colorectal adenocarcinomas: HT29, originating from a primary tumor; Duke’s type C DLD-1, with the potential to lymph node metastasis; highly metastatic HCT116; colon epithelial cells CCD 841 CoN), thyroid panel (follicular thyroid carcinoma FTC133, anaplastic thyroid carcinoma 8505C, papillary thyroid carcinoma TPC-1, normal thyroid follicular epithelial Nthy-ori 3–1), breast panel (ER-positive breast adenocarcinoma MCF7, ER-negative breast adenocarcinoma MDA-MB-231, breast epithelial MCF10A), brain panel (neuroblastoma SH-SY5Y, glioblastoma U-87 MG, murine astrocytes C8D1A). All cell lines were purchased from Merck (Darmstadt, Germany).
(§2) Cells were grown under standard conditions (37 °C, 5% CO2) and culture media (DMEM/F12 for PNT2, PC3, FTC133, 8505 C, MDA-MB-231, TPC-1; DMEM Low Glucose for DU145; DMEM High Glucose for HCT116, DLD-1, SH-SY5Y, U87MG, C8D1A; MEM with NEAA for MCF7; MEM for CCD 841 CoN; McCoy’s for HT29; RPMI1640 with sodium pyruvate for LNCaP; DMEM/F12 with 20 ng/mL epidermal growth factor (EGF), 10 μg/mL insulin, 0.5 μg/mL hydrocortisone, 100 ng/mL cholera toxin) for MCF10A), supplemented with 10% fetal bovine serum (FBS) or 5% donor horse serum for MCF10A, and 1% antibiotics solution (10,000 U penicillin and 10 mg streptomycin/mL). The tested substances were prepared as 10 mg/mL stock solutions in DMSO and further diluted in the culture media to the working concentrations. Cells were treated with UA enantiomers at the concentration range of 0–50 µg/mL. The influence of DMSO on cell viability was also examined, with the final concentration […], and no toxic effect was noted.
(§3) The cells were seeded onto 96-well plates at a density of 1.5 × 10^4 cells/well. After 24 h UA enantiomers were added. Cell viability was determined after 24, 48, and 72 h by the MTT assay, as described previously. Doxorubicin was used as a reference cytostatic drug. All analyses were performed in triplicate; cell viability was expressed as % of control, untreated cells (mean ± SD), and IC50 values (concentration at which cell viability is inhibited by 50%), if possible.

SH-SY5Y = assay: MTT viability assay, neuroblastoma SH-SY5Y cells; assay type: cell-based, human; details: SHSY5Y, 24 h
Source text: as §1, §2, §3

Nthy ori 3-1 = assay: MTT viability assay, normal thyroid follicular epithelial cells; assay type: cell-based, human; details: for IC50: Homo sapiens; for Cell viability: Nthy ori 3-1, 24 h
Source text: as §1, §2, §3

PNT2 = assay: MTT viability assay, normal prostate epithelial cells; assay type: cell-based, human; details: for IC50: Homo sapiens; for Cell viability: PNT2, 24 h
Source text: as §1, §2, §3

TPC-1 = assay: MTT viability assay, TPC-1 papillary thyroid carcinoma cells; assay type: cell-based, human; details: for IC50: Homo sapiens, TPC1; for Cell viability: TPC-1, 24 h
Source text: as §1, §2, §3
(§4) The selectivity index (SI) was calculated, if possible, by dividing the IC50 value obtained for non-cancerous cells line by the IC50 values obtained for appropriate cancer cell line, as described previously. […] The values above 3 indicate good selectivity.

LNCaP = assay: MTT viability assay, LNCaP prostate cancer cells; assay type: cell-based, human; details: for Cell viability: 24 h; for IC50: Homo sapiens
Source text: as §1, §2, §3

DU145 = assay: MTT viability assay, DU145 prostate cancer cells; assay type: cell-based, human; details: for Cell viability: DU145, 24 h; for IC50: Homo sapiens, DU-145
Source text: as §1, §2, §3, §4

MCF7 = assay: MTT viability assay, MCF7 breast cancer cells; assay type: cell-based, human; details: for IC50: Homo sapiens; for Cell viability: MCF7, 24 h
Source text: as §1, §2, §3, §4

C8D1A = assay: MTT viability assay, normal astrocytes C8D1A; assay type: cell-based, murine; details: C8D1A, 24 h
Source text: as §1, §2, §3

In the case of `CC(=O)C1=C(O)C=C2Oc3c(C(C)=O)c(O)c(C)c(O)c3[C@@]2(C)C1=O` [UA(+), (+)-usnic acid], the IC50 (WM793 cells) is listed as 30.05 µg/mL (≈ 87.3 µM), the Cell viability (HT29; 2.5 µg/mL) is listed as 103.23 % of control and the Cell viability (HT29; 5 µg/mL) is listed as 91.51 % of control. The Cell viability (HT29; 10 µg/mL) was 88.42 % of control, the Cell viability (HT29; 20 µg/mL) was 84.70 % of control and the Cell viability (HT29; 30 µg/mL) was 77.54 % of control. For the same compound, the Cell viability (HT29; 40 µg/mL) was 74.11 % of control, the Cell viability (HT29; 50 µg/mL) was 72.56 % of control and the IC50 (HT29; HT29, 48 h) was greater than 50 µg/mL. For the same compound, the IC50 (HT29; HT29, 72 h) was greater than 50 µg/mL, the Cell viability (SH-SY5Y; 2.5 µg/mL) was 99.49 % of control and the Cell viability (SH-SY5Y; 5 µg/mL) was 97.56 % of control. For the same compound, the Cell viability (SH-SY5Y; 10 µg/mL) was 97.95 % of control, the Cell viability (SH-SY5Y; 20 µg/mL) was 96.15 % of control and the Cell viability (SH-SY5Y; 30 µg/mL) was 95.77 % of control. For the same compound, the Cell viability (SH-SY5Y; 40 µg/mL) was 92.95 % of control, the Cell viability (SH-SY5Y; 50 µg/mL) was 96.54 % of control and the IC50 (Nthy ori 3-1; Nthy-ori 3-1, 48 h) was greater than 50 µg/mL. The IC50 (Nthy ori 3-1; Nthy-ori 3-1, 72 h) was 33.2 µg/mL (≈ 96.4 µM), the Cell viability (Nthy ori 3-1; 2.5 µg/mL) was 97.57 % of control and the Cell viability (Nthy ori 3-1; 5 µg/mL) was 100.56 % of control. The Cell viability (Nthy ori 3-1; 10 µg/mL) was 95.69 % of control, the Cell viability (Nthy ori 3-1; 20 µg/mL) was 93.96 % of control and the Cell viability (Nthy ori 3-1; 30 µg/mL) was 94.51 % of control. The Cell viability (Nthy ori 3-1; 40 µg/mL) was 97.29 % of control, the Cell viability (Nthy ori 3-1; 50 µg/mL) was 97.71 % of control and the IC50 (PNT2; PNT2, 48 h) was 37.4 µg/mL (≈ 109 µM). The IC50 (PNT2; PNT2, 72 h) was 20.4 µg/mL (≈ 59.2 µM), the Cell viability (PNT2; 5 µg/mL) was 101.11 % of control and the Cell viability (PNT2; 10 µg/mL) was 104.00 % of control. For the same compound, the Cell viability (PNT2; 20 µg/mL) was 96.96 % of control, the Cell viability (PNT2; 30 µg/mL) was 68.67 % of control and the Cell viability (PNT2; 40 µg/mL) was 59.70 % of control. For the same compound, the Cell viability (PNT2; 50 µg/mL) was 56.52 % of control, the IC50 (TPC-1; TPC-1, 48 h) was greater than 50 µg/mL and the IC50 (TPC-1; TPC-1, 72 h) was 28.2 µg/mL (≈ 81.9 µM). For the same compound, the “selectivity index (SI)” value (TPC-1; IC50 Nthy ori 3-1 / IC50 TPC-1, 72 h) was 1.18, the Cell viability (TPC-1; 2.5 µg/mL) was 101.62 % of control and the Cell viability (TPC-1; 5 µg/mL) was 105.96 % of control. For the same compound, the Cell viability (TPC-1; 10 µg/mL) was 105.31 % of control, the Cell viability (TPC-1; 20 µg/mL) was 97.02 % of control and the Cell viability (TPC-1; 30 µg/mL) was 95.96 % of control. For the same compound, the Cell viability (TPC-1; 40 µg/mL) was 91.23 % of control, the Cell viability (TPC-1; 50 µg/mL) was 87.50 % of control and the Cell viability (LNCaP; 2.5 µg/mL) was 87.68 % of control. The Cell viability (LNCaP; 5 µg/mL) was 81.45 % of control, the Cell viability (LNCaP; 10 µg/mL) was 79.71 % of control and the Cell viability (LNCaP; 20 µg/mL) was 75.51 % of control. For the same compound, the Cell viability (LNCaP; 30 µg/mL) was 71.45 % of control, the Cell viability (LNCaP; 40 µg/mL) was 69.13 % of control and the Cell viability (LNCaP; 50 µg/mL) was 69.71 % of control. For the same compound, the IC50 (LNCaP; 48 h) was greater than 50 µg/mL, the IC50 (LNCaP; 72 h) was greater than 50 µg/mL and the Cell viability (DU145; 2.5 µg/mL) was 102.26 % of control. The Cell viability (DU145; 5 µg/mL) was 94.38 % of control, the Cell viability (DU145; 10 µg/mL) was 86.92 % of control and the Cell viability (DU145; 20 µg/mL) was 87.54 % of control. The Cell viability (DU145; 30 µg/mL) was 72.41 % of control, the Cell viability (DU145; 40 µg/mL) was 68.15 % of control and the Cell viability (DU145; 50 µg/mL) was 67.13 % of control. For the same compound, the IC50 (DU145; DU145, 48 h) was 11.5 µg/mL (≈ 33.4 µM), the IC50 (DU145; DU145, 72 h) was 12.1 µg/mL (≈ 35.1 µM) and the “selectivity index (SI)” value (DU145; IC50 PNT2 / IC50 DU145, 48 h) was 3.25. For the same compound, the “selectivity index (SI)” value (DU145; IC50 PNT2 / IC50 DU145, 48 h, listed as (+)-UA) was “exceeding 3”, the “selectivity index (SI)” value (DU145; IC50 PNT2 / IC50 DU145, 72 h) was 1.68 and the IC50 (MCF7; MCF7, 48 h) was greater than 50 µg/mL. For the same compound, the IC50 (MCF7; MCF7, 72 h) was greater than 50 µg/mL, the Cell viability (MCF7; 2.5 µg/mL) was 106.54 % of control and the Cell viability (MCF7; 5 µg/mL) was 108.77 % of control. The Cell viability (MCF7; 10 µg/mL) was 108.15 % of control, the Cell viability (MCF7; 20 µg/mL) was 103.95 % of control and the Cell viability (MCF7; 30 µg/mL) was 89.38 % of control. The Cell viability (MCF7; 40 µg/mL) was 87.41 % of control, the Cell viability (MCF7; 50 µg/mL) was 87.78 % of control and the “selectivity index (SI)” value (MCF7; MCF7 cells, 72 h) was roughly 3. For the same compound, the Cell viability (C8D1A; 2.5 µg/mL) was 110.33 % of control, the Cell viability (C8D1A; 5 µg/mL) was 110.17 % of control and the Cell viability (C8D1A; 10 µg/mL) was 96.58 % of control. For the same compound, the Cell viability (C8D1A; 20 µg/mL) was 91.17 % of control, the Cell viability (C8D1A; 30 µg/mL) was 88.67 % of control and the Cell viability (C8D1A; 40 µg/mL) was 86.17 % of control. The Cell viability (C8D1A; 50 µg/mL) was 106.42 % of control.
